Like-named read-outs stand apart in the source and are kept apart here.
Columns and labels:
NEK7 = NEK7 (Homo sapiens (Human), UniProt Q8TDX7+Q96SW2); assay: NEK7 NanoBiT degradation assay in Cal51 NEK7 NanoBiT cell line; assay type: cell-based; settings: Cal51 NEK7 NanoBiT cells, 24 hours; for Dmax: CAL-51
Method in brief: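 EC50 comes from a 4-parameter fit of control-normalized luminescence. The luminescence reports HiBiT-NEK7 (endogenous knock-in) complemented by stably expressed LgBiT in Cal51 cells after 24 h compound exposure at 37 °C. Final concentrations ran 1 μM to 0.05 nM, with Endurazine substrate present in the medium throughout.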

CRBN-DDB1 = CRBN-DDB1 (Homo sapiens (Human), UniProt Q96SW2); assay: Compound binding to CRBN by HTRF assay
Sequence of CRBN-DDB1 (Q96SW2 whole entry): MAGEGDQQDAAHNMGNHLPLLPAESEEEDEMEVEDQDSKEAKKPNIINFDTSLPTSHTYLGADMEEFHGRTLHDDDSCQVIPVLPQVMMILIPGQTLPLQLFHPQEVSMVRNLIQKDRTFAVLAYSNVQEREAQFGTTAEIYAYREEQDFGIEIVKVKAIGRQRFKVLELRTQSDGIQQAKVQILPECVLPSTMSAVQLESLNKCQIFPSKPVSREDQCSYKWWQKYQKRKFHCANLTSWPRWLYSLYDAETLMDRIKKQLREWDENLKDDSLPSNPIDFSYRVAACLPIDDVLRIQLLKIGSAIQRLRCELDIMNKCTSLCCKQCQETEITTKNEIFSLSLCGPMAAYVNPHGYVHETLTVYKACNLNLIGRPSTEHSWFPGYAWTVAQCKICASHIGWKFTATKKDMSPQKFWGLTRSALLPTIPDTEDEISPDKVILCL
Sequence of CRBN-DDB1 (Q16531 whole entry partner): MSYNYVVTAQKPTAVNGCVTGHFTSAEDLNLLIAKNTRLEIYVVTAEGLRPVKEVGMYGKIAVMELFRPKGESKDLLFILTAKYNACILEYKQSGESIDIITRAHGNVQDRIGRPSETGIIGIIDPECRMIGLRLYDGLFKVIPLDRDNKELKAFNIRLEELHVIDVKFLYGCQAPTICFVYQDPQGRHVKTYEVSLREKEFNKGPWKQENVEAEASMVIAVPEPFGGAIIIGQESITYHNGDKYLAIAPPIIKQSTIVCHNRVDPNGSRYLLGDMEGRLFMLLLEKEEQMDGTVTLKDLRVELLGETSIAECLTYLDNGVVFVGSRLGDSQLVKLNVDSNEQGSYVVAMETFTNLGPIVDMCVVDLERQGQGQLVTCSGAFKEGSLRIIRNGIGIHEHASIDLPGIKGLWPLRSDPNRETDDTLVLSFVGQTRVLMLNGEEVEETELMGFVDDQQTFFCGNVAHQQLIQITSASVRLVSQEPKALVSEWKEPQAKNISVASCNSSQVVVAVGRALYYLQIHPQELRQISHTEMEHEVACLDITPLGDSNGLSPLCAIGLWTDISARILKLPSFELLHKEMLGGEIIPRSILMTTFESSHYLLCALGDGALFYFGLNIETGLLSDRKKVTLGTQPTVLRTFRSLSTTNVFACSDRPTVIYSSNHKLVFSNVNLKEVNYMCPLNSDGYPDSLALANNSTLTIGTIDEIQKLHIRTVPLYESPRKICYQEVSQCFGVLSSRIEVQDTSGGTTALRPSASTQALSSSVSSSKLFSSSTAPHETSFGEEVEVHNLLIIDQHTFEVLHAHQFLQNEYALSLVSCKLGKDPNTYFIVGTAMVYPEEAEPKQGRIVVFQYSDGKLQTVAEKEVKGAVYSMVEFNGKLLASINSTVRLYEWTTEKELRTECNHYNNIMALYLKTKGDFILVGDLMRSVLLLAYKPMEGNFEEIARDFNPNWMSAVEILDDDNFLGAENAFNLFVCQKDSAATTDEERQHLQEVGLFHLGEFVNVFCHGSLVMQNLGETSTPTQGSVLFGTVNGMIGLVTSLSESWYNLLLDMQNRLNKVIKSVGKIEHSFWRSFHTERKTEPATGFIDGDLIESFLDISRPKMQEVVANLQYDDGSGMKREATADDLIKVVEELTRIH
Method in brief: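 Ki calculated via Cheng-Prusoff from geometric-mean EC50 values, after normalizing the HTRF ratio to lenalidomide (active) and DMSO (neutral) controls. Compounds (11 points, 1:3 steps) incubated 30 min at ambient temperature with CRBN-DDB1 2.5 nM, anti-His Tb cryptate and Cy5-thalidomide tracer 100 nM.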

[1] = NEK7 degradation, read-out: NanoBiT Dmax
[2] = NEK7 degradation, read-out: NanoBiT DC50

Sequence of NEK7 (Q8TDX7 whole entry): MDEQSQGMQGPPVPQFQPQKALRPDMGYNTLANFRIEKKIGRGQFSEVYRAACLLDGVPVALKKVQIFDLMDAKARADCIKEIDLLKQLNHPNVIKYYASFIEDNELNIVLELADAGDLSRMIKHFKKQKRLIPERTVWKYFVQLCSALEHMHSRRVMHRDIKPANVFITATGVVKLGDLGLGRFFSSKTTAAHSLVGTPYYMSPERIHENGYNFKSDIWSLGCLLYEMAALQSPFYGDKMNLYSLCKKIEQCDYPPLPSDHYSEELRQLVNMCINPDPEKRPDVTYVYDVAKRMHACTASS
Sequence of NEK7 (Q96SW2 whole entry): as the sequence (Q96SW2 whole entry) above
Sequence of NEK7 (Q16531 2-1140 partner): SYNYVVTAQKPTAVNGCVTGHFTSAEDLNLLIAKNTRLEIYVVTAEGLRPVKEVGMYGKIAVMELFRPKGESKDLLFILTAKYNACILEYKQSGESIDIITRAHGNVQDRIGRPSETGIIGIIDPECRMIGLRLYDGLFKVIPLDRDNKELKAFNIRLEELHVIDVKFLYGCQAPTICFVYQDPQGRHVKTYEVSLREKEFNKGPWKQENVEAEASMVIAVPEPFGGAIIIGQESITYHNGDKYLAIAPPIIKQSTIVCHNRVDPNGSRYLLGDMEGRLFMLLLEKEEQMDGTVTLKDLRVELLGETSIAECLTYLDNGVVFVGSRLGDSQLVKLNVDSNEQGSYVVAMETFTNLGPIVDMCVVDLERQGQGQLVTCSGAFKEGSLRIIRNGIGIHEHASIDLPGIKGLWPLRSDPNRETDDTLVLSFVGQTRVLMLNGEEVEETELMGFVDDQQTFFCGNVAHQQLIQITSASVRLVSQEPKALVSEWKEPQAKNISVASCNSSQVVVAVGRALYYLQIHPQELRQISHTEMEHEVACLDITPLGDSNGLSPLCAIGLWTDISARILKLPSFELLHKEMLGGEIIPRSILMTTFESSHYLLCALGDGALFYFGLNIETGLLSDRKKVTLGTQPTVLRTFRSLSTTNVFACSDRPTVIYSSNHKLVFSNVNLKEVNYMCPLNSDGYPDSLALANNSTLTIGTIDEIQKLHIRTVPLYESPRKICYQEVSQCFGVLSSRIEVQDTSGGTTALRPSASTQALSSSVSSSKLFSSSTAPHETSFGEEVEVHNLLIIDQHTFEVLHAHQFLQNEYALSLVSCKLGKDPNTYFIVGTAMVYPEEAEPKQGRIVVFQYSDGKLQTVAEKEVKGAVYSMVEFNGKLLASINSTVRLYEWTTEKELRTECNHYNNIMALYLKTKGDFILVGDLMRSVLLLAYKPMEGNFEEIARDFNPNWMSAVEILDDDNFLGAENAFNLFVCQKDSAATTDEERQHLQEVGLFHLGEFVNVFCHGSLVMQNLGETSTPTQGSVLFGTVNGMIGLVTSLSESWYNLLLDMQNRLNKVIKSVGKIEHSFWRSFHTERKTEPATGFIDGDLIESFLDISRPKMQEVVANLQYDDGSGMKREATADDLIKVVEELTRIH

## COCc1cnc(C(C)(C)C(=O)NCc2cc(Cl)c(C3CCC(=O)NC3=O)c(Cl)c2)cn1 (stereo not drawn) [Compound 222, N-(3,5-dichloro-4-(2,6-dioxopiperidin-3-yl)benzyl)-2-(5-(methoxymethyl)pyrazin-2-yl)-2-methylpropanamide]
NEK7; read-out: NEK7 NanoBiT Dmax
  Dmax: 73%
NEK7; [1]
  Dmax: 50 to 75%
NEK7; read-out: NEK7 NanoBiT DC50
  DC50: 54 nM
NEK7; [2]
  DC50: ≤ 100 nM
CRBN-DDB1
  EC50: 160 nM
CRBN-DDB1; HTRF class, Cereblon binding
  EC50: 100 to 1000 nM

## CC(C)(C(=O)NCc1cc(Cl)c(C2CCC(=O)NC2=O)c(Cl)c1)c1ccc(OC(F)(F)F)nn1 (stereo not drawn) [Compound 223, N-(3,5-dichloro-4-(2,6-dioxopiperidin-3-yl)benzyl)-2-methyl-2-(6-(trifluoromethoxy)pyridazin-3-yl)propanamide]
NEK7; read-out: NEK7 NanoBiT Dmax
  Dmax: 91%
NEK7; [1]
  Dmax: > 75%
NEK7; read-out: NEK7 NanoBiT DC50
  DC50: 8 nM
NEK7; [2]
  DC50: ≤ 100 nM
CRBN-DDB1
  EC50: 90 nM
CRBN-DDB1; HTRF class, Cereblon binding
  EC50: ≤ 100 nM

## Cc1nnc(C2(C(=O)NCc3cc(Cl)c(C4CCC(=O)NC4=O)c(Cl)c3)CCC2)o1 (stereo not drawn) [Compound 226, N-(3,5-dichloro-4-(2,6-dioxopiperidin-3-yl)benzyl)-1-(5-methyl-1,3,4-oxadiazol-2-yl)-cyclobutane-1-carboxamide]
NEK7; read-out: NEK7 NanoBiT Dmax
  Dmax: 54%
NEK7; [1]
  Dmax: 50 to 75%
NEK7; read-out: NEK7 NanoBiT DC50
  DC50: 556 nM
NEK7; [2]
  DC50: 100 to 1000 nM
CRBN-DDB1
  EC50: 130 nM
CRBN-DDB1; HTRF class, Cereblon binding
  EC50: 100 to 1000 nM

## COc1conc1C(C)(C)C(=O)NCc1cc(Cl)c(C2CCC(=O)NC2=O)c(Cl)c1 (stereo not drawn) [Compound 227, N-(3,5-dichloro-4-(2,6-dioxopiperidin-3-yl)benzyl)-2-(4-methoxyisoxazol-3-yl)-2-methylpropanamide]
NEK7; read-out: NEK7 NanoBiT Dmax
  Dmax: 92%
NEK7; [1]
  Dmax: > 75%
NEK7; read-out: NEK7 NanoBiT DC50
  DC50: 6 nM
NEK7; [2]
  DC50: ≤ 100 nM
CRBN-DDB1
  EC50: 110 nM
CRBN-DDB1; HTRF class, Cereblon binding
  EC50: 100 to 1000 nM

## COCc1ccc(C(C)(C)C(=O)NCc2cc(Cl)c(C3CCC(=O)NC3=O)c(Cl)c2)nn1 (stereo not drawn) [Compound 228]
NEK7; read-out: NEK7 NanoBiT Dmax
  Dmax: 85%
NEK7; [1]
  Dmax: > 75%
NEK7; read-out: NEK7 NanoBiT DC50
  DC50: 18 nM
NEK7; [2]
  DC50: ≤ 100 nM
CRBN-DDB1
  EC50: 150 nM
CRBN-DDB1; HTRF class, Cereblon binding
  EC50: 100 to 1000 nM

## CC(C)(C(=O)NCc1cc(Cl)c(C2CCC(=O)NC2=O)c(Cl)c1)c1ncc(OC(F)(F)F)cn1 (stereo not drawn) [Compound 229, N-(3,5-dichloro-4-(2,6-dioxopiperidin-3-yl)benzyl)-2-methyl-2-(5-(trifluoromethoxy)-pyrimidin-2-yl)propanamide]
NEK7; read-out: NEK7 NanoBiT Dmax
  Dmax: 88%
NEK7; [1]
  Dmax: > 75%
NEK7; read-out: NEK7 NanoBiT DC50
  DC50: 12 nM
NEK7; [2]
  DC50: ≤ 100 nM
CRBN-DDB1
  EC50: 120 nM
CRBN-DDB1; HTRF class, Cereblon binding
  EC50: 100 to 1000 nM

## CC(C)(C(=O)NCc1cc(Cl)c(C2CCC(=O)NC2=O)c(Cl)c1)c1cc(C(F)(F)F)on1 (stereo not drawn) [Compound 230, N-(3,5-dichloro-4-(2,6-dioxopiperidin-3-yl)benzyl)-2-methyl-2-(5-(trifluoromethyl)isoxazol-3-yl)propanamide]
NEK7; read-out: NEK7 NanoBiT Dmax
  Dmax: 83%
NEK7; [1]
  Dmax: > 75%
NEK7; read-out: NEK7 NanoBiT DC50
  DC50: 23 nM
NEK7; [2]
  DC50: ≤ 100 nM
CRBN-DDB1
  EC50: 110 nM
CRBN-DDB1; HTRF class, Cereblon binding
  EC50: 100 to 1000 nM

## CC(C)(C(=O)NCc1cc(Cl)c(C2CCC(=O)NC2=O)c(Cl)c1)c1ncc(CO)cn1 (stereo not drawn) [Compound 231, N-(3,5-dichloro-4-(2,6-dioxopiperidin-3-yl)benzyl)-2-(5-(hydroxymethyl)pyrimidin-2-yl)-2-methylpropanamide]
NEK7; read-out: NEK7 NanoBiT Dmax
  Dmax: 82%
NEK7; [1]
  Dmax: > 75%
NEK7; read-out: NEK7 NanoBiT DC50
  DC50: 23 nM
NEK7; [2]
  DC50: ≤ 100 nM
CRBN-DDB1
  EC50: 140 nM
CRBN-DDB1; HTRF class, Cereblon binding
  EC50: 100 to 1000 nM

## CC(C)(C(=O)NCc1cc(Cl)c(C2CCC(=O)NC2=O)c(Cl)c1)c1cnc(C2CC2)cn1 (stereo not drawn) [Compound 232]
NEK7; read-out: NEK7 NanoBiT Dmax
  Dmax: 93%
NEK7; [1]
  Dmax: > 75%
NEK7; read-out: NEK7 NanoBiT DC50
  DC50: 3 nM
NEK7; [2]
  DC50: ≤ 100 nM
CRBN-DDB1
  EC50: 150 nM
CRBN-DDB1; HTRF class, Cereblon binding
  EC50: 100 to 1000 nM

## COCc1nc(C(C)(C)C(=O)NCc2cc(Cl)c(C3CCC(=O)NC3=O)c(Cl)c2)ncc1C (stereo not drawn) [Compound 233, N-(3,5-dichloro-4-(2,6-dioxopiperidin-3-yl)benzyl)-2-(4-(methoxymethyl)-5-methylpyrimidin-2-yl)-2-methylpropanamide]
NEK7; read-out: NEK7 NanoBiT Dmax
  Dmax: 74%
NEK7; [1]
  Dmax: 50 to 75%
NEK7; read-out: NEK7 NanoBiT DC50
  DC50: 29 nM
NEK7; [2]
  DC50: ≤ 100 nM
CRBN-DDB1
  EC50: 190 nM
CRBN-DDB1; HTRF class, Cereblon binding
  EC50: 100 to 1000 nM

## CCOc1cnc(C(C)(C)C(=O)NCc2cc(Cl)c(C3CCC(=O)NC3=O)c(Cl)c2)cn1 (stereo not drawn) [Compound 234, N-(3,5-dichloro-4-(2,6-dioxopiperidin-3-yl)benzyl)-2-(5-ethoxypyrazin-2-yl)-2-methylpropanamide]
NEK7; read-out: NEK7 NanoBiT Dmax
  Dmax: 97%
NEK7; [1]
  Dmax: > 75%
NEK7; read-out: NEK7 NanoBiT DC50
  DC50: 1 nM
NEK7; [2]
  DC50: ≤ 100 nM
CRBN-DDB1
  EC50: 70 nM
CRBN-DDB1; HTRF class, Cereblon binding
  EC50: ≤ 100 nM

## CC(C)(C(=O)NCc1cc(Cl)c(C2CCC(=O)NC2=O)c(Cl)c1)c1ncc(C(=O)O)cn1 (stereo not drawn) [Compound 235, 2-(1-((3,5-dichloro-4-(2,6-dioxopiperidin-3-yl)benzyl)amino)-2-methyl-1-oxopropan-2-yl)pyrimidine-5-carboxylic acid]
NEK7; read-out: NEK7 NanoBiT Dmax
  Dmax: 11%
NEK7; [1]
  Dmax: ≤ 50%
NEK7; read-out: NEK7 NanoBiT DC50
  DC50: 1000 nM
NEK7; [2]
  DC50: > 1000 nM
CRBN-DDB1
  EC50: 560 nM
CRBN-DDB1; HTRF class, Cereblon binding
  EC50: 100 to 1000 nM

## Cc1ocnc1C(C)(C)C(=O)NCc1cc(Cl)c(C2CCC(=O)NC2=O)c(Cl)c1 (stereo not drawn) [Compound 236]
NEK7; read-out: NEK7 NanoBiT Dmax
  Dmax: 71%
NEK7; [1]
  Dmax: 50 to 75%
NEK7; read-out: NEK7 NanoBiT DC50
  DC50: 41 nM
NEK7; [2]
  DC50: ≤ 100 nM
CRBN-DDB1
  EC50: 250 nM
CRBN-DDB1; HTRF class, Cereblon binding
  EC50: 100 to 1000 nM

## [2H]C([2H])([2H])C(C(=O)NCc1cc(Cl)c(C2CCC(=O)NC2=O)c(Cl)c1)(c1ncc(C)cn1)C([2H])([2H])[2H] (stereo not drawn) [Compound 237]
NEK7; read-out: NEK7 NanoBiT Dmax
  Dmax: 87%
NEK7; [1]
  Dmax: > 75%
NEK7; read-out: NEK7 NanoBiT DC50
  DC50: 11 nM
NEK7; [2]
  DC50: ≤ 100 nM
CRBN-DDB1
  EC50: 150 nM
CRBN-DDB1; HTRF class, Cereblon binding
  EC50: 100 to 1000 nM

## CC(C)(O)c1cnc(C(C)(C)C(=O)NCc2cc(Cl)c(C3CCC(=O)NC3=O)c(Cl)c2)cn1 (stereo not drawn) [Compound 238, N-(3,5-dichloro-4-(2,6-dioxopiperidin-3-yl)benzyl)-2-(5-(2-hydroxypropan-2-yl)pyrazin-2-yl)-2-methylpropanamide]
NEK7; read-out: NEK7 NanoBiT Dmax
  Dmax: 63%
NEK7; [1]
  Dmax: 50 to 75%
NEK7; read-out: NEK7 NanoBiT DC50
  DC50: 153 nM
NEK7; [2]
  DC50: 100 to 1000 nM
CRBN-DDB1
  EC50: 170 nM
CRBN-DDB1; HTRF class, Cereblon binding
  EC50: 100 to 1000 nM

## Cc1nc(CNC(=O)C(C)(C)c2ccccc2)cc(Cl)c1C1CCC(=O)NC1=O (stereo not drawn) [Compound 239, N-((4-chloro-5-(2,6-dioxopiperidin-3-yl)-6-methylpyridin-2-yl)methyl)-2-methyl-2-phenylpropanamide]
NEK7; read-out: NEK7 NanoBiT Dmax
  Dmax: 47%
NEK7; [1]
  Dmax: ≤ 50%
NEK7; read-out: NEK7 NanoBiT DC50
  DC50: 909 nM
NEK7; [2]
  DC50: 100 to 1000 nM
CRBN-DDB1
  EC50: 660 nM
CRBN-DDB1; HTRF class, Cereblon binding
  EC50: 100 to 1000 nM

## CC(C)(C(=O)NCc1cc(Cl)c(C2CCC(=O)NC2=O)c(Cl)c1)c1cnc(CC(F)F)cn1 (stereo not drawn) [Compound 240]
NEK7; read-out: NEK7 NanoBiT Dmax
  Dmax: 69%
NEK7; [1]
  Dmax: 50 to 75%
NEK7; read-out: NEK7 NanoBiT DC50
  DC50: 79 nM
NEK7; [2]
  DC50: ≤ 100 nM
CRBN-DDB1
  EC50: 150 nM
CRBN-DDB1; HTRF class, Cereblon binding
  EC50: 100 to 1000 nM

## Cc1cnc(C(C)(CO)C(=O)NCc2cc(Cl)c(C3CCC(=O)NC3=O)c(Cl)c2)nc1 (stereo not drawn) [Compound 241, N-(3,5-dichloro-4-(2,6-dioxopiperidin-3-yl)benzyl)-3-hydroxy-2-methyl-2-(5-methylpyrimidin-2-yl)propanamide]
NEK7; read-out: NEK7 NanoBiT Dmax
  Dmax: 86%
NEK7; [1]
  Dmax: > 75%
NEK7; read-out: NEK7 NanoBiT DC50
  DC50: 15 nM
NEK7; [2]
  DC50: ≤ 100 nM
CRBN-DDB1
  EC50: 140 nM
CRBN-DDB1; HTRF class, Cereblon binding
  EC50: 100 to 1000 nM

## CC(C)(C(=O)NCc1cc(Cl)c(C2CCC(=O)NC2=O)c(C#N)c1)c1ccccc1 (stereo not drawn) [Compound 242, N-(3-chloro-5-cyano-4-(2,6-dioxopiperidin-3-yl)benzyl)-2-methyl-2-phenylpropanamide]
NEK7; read-out: NEK7 NanoBiT Dmax
  Dmax: 59%
NEK7; [1]
  Dmax: 50 to 75%
NEK7; read-out: NEK7 NanoBiT DC50
  DC50: 319 nM
NEK7; [2]
  DC50: 100 to 1000 nM
CRBN-DDB1
  EC50: 430 nM
CRBN-DDB1; HTRF class, Cereblon binding
  EC50: 100 to 1000 nM

## COCCc1cnc(C(C)(C)C(=O)NCc2cc(Cl)c(C3CCC(=O)NC3=O)c(Cl)c2)nc1 (stereo not drawn) [Compound 245, N-(3,5-dichloro-4-(2,6-dioxopiperidin-3-yl)benzyl)-2-(5-(2-methoxyethyl)pyrimidin-2-yl)-2-methylpropanamide]
NEK7; read-out: NEK7 NanoBiT Dmax
  Dmax: 48%
NEK7; [1]
  Dmax: ≤ 50%
NEK7; read-out: NEK7 NanoBiT DC50
  DC50: 672 nM
NEK7; [2]
  DC50: 100 to 1000 nM
CRBN-DDB1
  EC50: 160 nM
CRBN-DDB1; HTRF class, Cereblon binding
  EC50: 100 to 1000 nM
